Measured values from article PMC6200358 (Science Advances, 2018).

Assays:
[1] = test system: BALB/c mice; assay: Tetrad test; assay type: in vivo, mouse; settings: pretreatment at 5 mg/kg
[2] = biological target: human CB1R (Homo sapiens, UniProt P21554); assay: [35S]GTPγS binding assay, CHO-hCB1 membranes; assay type: biochemical
[3] = biological target: human CB2R (Homo sapiens, UniProt P34972); assay: [35S]GTPγS binding assay, CHO-hCB2 membranes; assay type: biochemical
Sequence of human CB2R (P34972 whole entry): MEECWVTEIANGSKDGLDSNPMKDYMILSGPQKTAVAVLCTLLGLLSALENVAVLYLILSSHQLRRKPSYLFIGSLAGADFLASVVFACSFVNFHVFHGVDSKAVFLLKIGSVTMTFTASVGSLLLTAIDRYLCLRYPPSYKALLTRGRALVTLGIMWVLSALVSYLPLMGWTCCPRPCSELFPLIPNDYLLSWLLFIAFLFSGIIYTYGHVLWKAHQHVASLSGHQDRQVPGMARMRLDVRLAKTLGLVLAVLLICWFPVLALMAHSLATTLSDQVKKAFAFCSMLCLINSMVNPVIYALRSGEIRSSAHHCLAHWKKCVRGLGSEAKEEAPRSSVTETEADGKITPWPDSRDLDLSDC

Sequence of human CB1R (P21554 whole entry): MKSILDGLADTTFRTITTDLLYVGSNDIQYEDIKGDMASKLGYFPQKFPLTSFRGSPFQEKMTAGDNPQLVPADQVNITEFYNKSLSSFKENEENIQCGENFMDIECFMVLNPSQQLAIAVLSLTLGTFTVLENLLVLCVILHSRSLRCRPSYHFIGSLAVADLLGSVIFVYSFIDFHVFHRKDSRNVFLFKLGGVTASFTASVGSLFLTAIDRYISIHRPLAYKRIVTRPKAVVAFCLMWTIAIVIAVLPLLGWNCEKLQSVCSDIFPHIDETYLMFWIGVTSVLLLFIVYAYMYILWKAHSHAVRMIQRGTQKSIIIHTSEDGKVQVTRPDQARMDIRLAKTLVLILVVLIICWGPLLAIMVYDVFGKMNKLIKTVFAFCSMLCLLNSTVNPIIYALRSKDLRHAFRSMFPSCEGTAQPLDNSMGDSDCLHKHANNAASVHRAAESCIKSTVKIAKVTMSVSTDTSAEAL

Cc1c(C(=O)NN2CCCCC2)nn(-c2ccc(Cl)cc2Cl)c1-c1ccc(Cl)cc1 [rimonabant, Rimonabant]
Blockade of the tetrad effects of PET and THC diastereoisomers [1]: fully abolished

CCCCCCC(C)(C)c1ccc([C@@H]2C[C@H](O)CC[C@H]2CCCO)c(O)c1 [CP55,940]
CB1R agonist type (full or partial agonist) ([2]; [35S]GTPγS binding): full | Emax ([2]; read-out: Receptor activation CB1R (Emax)): 173 ± 6% | CB2R agonist type (full or partial agonist) ([3]; [35S]GTPγS binding): full | Emax ([3]; read-out: Receptor activation CB2R (Emax)): 194 ± 5%
